In brackets after ≈: the same amount, converted by molar mass.
Test system: E. Coli 31
Assay: in vitro antimicrobial activity, two-fold agar-plate dilution method
Type: cell-based
Settings: Escherichia coli; test strain E. Coli 31; 10^6 viable cells per ml; HI-agar; 37° C., 20 hours; read-out: MIC (minimal inhibitory concentration)
Description: in vitro Antimicrobial Activity was determined by the two-fold agar-plate dilution method as described blow.
One loopful of an overnight culture of a test strain in Trypticase-soy broth (10^6 viable cells per ml) was streaked on heart infusion agar (HI-agar) containing graded concentrations of the test compound, and the minimal inhibitory concentration (MIC) was expressed in terms of μg/ml after incubation at 37° C. for 20 hours.

## C[C@@H](O)[C@H]1C(=O)N2C(C(=O)O)=C(S[C@@H]3CN[C@H](Cn4ccnc4)C3)[C@H](C)[C@H]12 [Example 2, (4R,5S,6S)-6-((IR)-1-hydroxyethyl) -3-((2S,4S)-2-(imidazol-1-yl)-methylpyrrolidin-4-yl) thio-4-methyl-7-oxo-1-azabicyclo(3.2.0) -hept-2-ene-2-carboxylic acid]
  MIC: 0.05 mg/L (≈ 0.127 µM)
